# Data published in patent US12673039B2, “Methods of inducing autophagy using coumarin derivatives and related compounds” (Buck Institute for Research on Aging, priority 2019, dated 2026).
# Legend:
# [1] = test system: human TFEB promoter; assay: TFEB promoter secreted-luciferase assay in rat N27 neuronal cells; type: cell-based; conditions: 24 hour treatment, versus DMSO-control (FIG. 18, panel A)
# Experimental: FIG. 18, panels A-F: AIC106 (Autophagy Inducing Coumarin-106) induces transcription of TFEB and its targets in vitro in rat N27 neuronal cells and in vivo in C. elegans. Panel A) Relative fold change in TFEB promoter activity compared to DMSO-control was determined by quantifying luciferase activity in supernatants collected from rat N27 neuronal cells post-24 hour treatment with C1 (AIC106), D1 and D2. [n=3 independent experiments (mean±SEM), **p<0.01, by one-way ANOVA with Dunnett's multiple comparisons test]. Panel B) Chemical structure of AIC106 and its structural derivative D1 and D2. Panel C) Relative fold change in mRNA of tfeb and its targets compared to DMSO-control were quantified using qRT-PCR in N27 neuronal cells post-24 hour treatment with AIC106 [N=3 independent experiments (mean±SD). *p<0.05, **p<0.01 and ****p<0.0001, by two-way ANOVA with Sidak's multiple comparisons test]. Panel D) Changes in HLH-30 expression were measured by quantifying GFP intensity in an individual GFP-tagged HLH-30 strain (MAH235) post-24 hours treatment with AIC106 and DMSO-control. […] Panel E) HLH-30; GFP (MAH235) were monitored by fluorescence microscopy. Panel F) Relative fold change in mRNA of hlh-30 and its targets compared to DMSO-control were quantified using qRT-PCR in young adult wild type N2 worms post-24 hours treatment with AIC106. […]
# [2] = test system: SH-SY5Y cells; assay: Autophagic flux (LC3-II ± bafilomycin A1) in SH-SY5Y cells; type: cell-based, human; conditions: presence and absence of bafliomycin A1
# Experimental: FIG. 23, panels A-H: FXR modulation enhances HLH-30 expression in human neuronal SH-SY5Y cells. Panel A) Effects of AIC106 on human FXR activity was determined in a mammalian one-hybrid based kit assay by quantifying changes in the luciferase activity of FXR ligand (GW4064, GW) induced treatment. [N=3 independent experiments (mean±SD). ****p<0.0001, by one-way ANOVA with Tukey's multiple comparisons test]. Panel B) Protein expression of TFEB, cathepsin-D (CAT-D) and small heterodimer partner-1 (SHP-1) was determined by immunoblot in neuronal SH-SY5Y cells post-24 hours of treatment with AIC106 and DMSO-control. Panel C) AIC106 enhances autophagic flux in neuronal SH-SY5Y cells. Autophagic flux in DMSO-control and AIC106 treated neuronal cells was determined by quantifying levels of autophagosome specific LC3-II protein both in presence and absence of autophagy inhibitor bafliomycin A1 (Baf A, 10 nM). Panel D) Relative fold change in the band intensity of LC3-II protein, normalized to loading control actin. Values are relative to DMSO-control. […] Panel E) Effects of AIC106 treatment for 72 hours on basal TAU and phosphorylated-TAU in differentiated human neuronal SH-SHY5Y and heterozygous TSC1(+/−) mutant SH-SY5Y neuronal cells were quantitated by immunoblotting following total protein extraction. […]
# [3] = test system: worms expressing human Abeta and alpha-synuclein; assay: Neurodegenerative C. elegans models expressing human Abeta and alpha-synuclein (Example 1); type: in vivo; conditions: worms expressing human Abeta and alpha-synuclein (FIG. 11)
# Experimental: FIGS. 11A-11D illustrate that coumarin 106 (“C1”, “AIC106”) is protective in a TFEB-dependent manner in C. elegans models that express human neurotoxic proteins. FIG. 11A) Transgenic worm strain expressing human alpha-synuclein under control of the dopamine-specific promoter grown on control or HLH-30 RNAi were exposed to 20 μM C1 versus DMSO-only controls on day-1 of adulthood. GFP+ cell counts were performed in young adults. Values represent number of animals displaying no DAergic cell loss; pooled results from 2 independent experiments. FIG. 11B) Transgenic worm strain expressing human alpha-synuclein under control of the muscle-specific promoter grown on control or HLH-30 RNAi were exposed to 20 μM C1 versus DMSO-only control on day-1 of adulthood followed by transfer to fresh plates every alternative day. Number of trashes per 30 sec were measured at day-6 and day-7 (n>60). *p<0.03, ***p<0.0008, ****p<0.0001. FIG. 11C) Transgenic worms expressing Abeta tagged with GFP within glutaminergic neurons grown on control or HLH-30 RNAi were exposed to 50 or 200 μM C1 versus DMSO-only controls on day-1 of adulthood. GFP+ cell counts were performed in young adults. Values represent % intact neurons. […] Number of trashes per 30 sec were measured at day-6 and day-7 (n>60). *p<0.03, ****p<0.0001. […]
smiles,measurement,setting,value
"O=c1oc2c3c4c(cc2c2c1CCC2)CCCN4CCC3 [C1, 2,3,6,7,10,11-Hexahydro-1H,5H-cyclopenta(3,4)(1)benzopyrano(6,7,8-ij)quinolizin-12(9H)-one]",luciferase transcription (TFEB promoter activity),[1],6-7 fold
same,autophagic flux (LC3 turnover),[2],enhanced autophagic flux
same,protection in neurodegenerative C. elegans models,[3],protection in a TFEB-dependent manner
